MIC data for two compounds are collected here from ChEMBL document CHEMBL1629680, “Role for Fks1 in the intrinsic echinocandin resistance of Fusarium solani as evidenced by hybrid expression in Saccharomyces cerevisiae” (2009).

≈ marks a conversion by molar mass, not a printed value. *1 amine or outer side, *2 acyl side, *3 side chain or, on linkers, in order; H or OH if unused. Where a SMILES comes first, the peptide text is derived from it. Bridges are numbered along the chain shown (N, C = ends). [ ]: non-standard residue; d: D form. The star is where a group is joined. hTyr(3S-OH,4S-OH,3'-OSO3H) = N[C@H](C(=O)O)[C@H](O)[C@@H](O)c1ccc(O)c(OS(=O)(=O)O)c1; Orn(4R-OH,5R-OH) = O=C([C@H](C[C@@H](O)[C@@H](O)N[*:3])N[*:1])[*:2]; Pro(3S-OH,4S-Me) = C[C@H]1CN[C@H](C(=O)O)[C@H]1O; X1 = CCCCCOc1ccc(-c2cc(-c3ccc(C(=O)*)cc3)no2)cc1; Gln(3R-OH) = NC(=O)C[C@@H](O)[C@H](N)C(=O)O; Hyp = O=C(O)[C@@H]1C[C@@H](O)CN1

Common to all, as to type: functional
In assay [1] the test system is Nakaseomyces glabratus. The assay is described as follows: Antimicrobial activity against Candida glabrata containing fsk2-L588P/F639V mutant after 24 hrs by broth microdilution assay.
For assay [2], the system named is Saccharomyces cerevisiae. As to the kind of experiment: Antimicrobial activity against Saccharomyces cerevisiae BY4742 containing Fusarium solani fks1617-649 with F639 mutant after 24 hrs by broth microdilution assay. The conditions noted are these: BY4742, 24 h. In general terms: Dilution methods test growth across graded concentrations, often in twofold steps.

The test system of assay [3] is Saccharomyces cerevisiae. The assay is described as follows: Antimicrobial activity against Saccharomyces cerevisiae BY4742 fks1delta617-649::URA3 deletant after 24 hrs by broth microdilution assay. The conditions noted are these: BY4742, 24 h.
Assay [4] has as its system Saccharomyces cerevisiae. The assay is described as follows: Antimicrobial activity against Saccharomyces cerevisiae BY4742 containing Fusarium solani fks1-FS453-649 with F639 mutant after 24 hrs by broth microdilution assay. As to conditions: BY4742, 24 h.
For assay [5], the system named is Saccharomyces cerevisiae. The assay is described as follows: Antimicrobial activity against Saccharomyces cerevisiae BY4742 containing Candida glabrata fks1-CgS453-649 hybrid after 24 hrs by broth microdilution assay. The conditions noted are these: BY4742, 24 h.
The test system of assay [6] is Saccharomyces cerevisiae. The assay is described as follows: Antimicrobial activity against Saccharomyces cerevisiae BY4742 containing Candida glabrata fks1-CgR453-649 hybrid after 24 hrs by broth microdilution assay. The conditions noted are these: BY4742, 24 h.
Assay [7] has as its system Saccharomyces cerevisiae. The assay is described as follows: Antimicrobial activity against Saccharomyces cerevisiae BY4742 containing Fusarium solani fks1-FS453-649 hybrid after 24 hrs by broth microdilution assay. The conditions noted are these: BY4742, 24 h.
Assay [8] relates to Saccharomyces cerevisiae. As to the kind of experiment: Antimicrobial activity against Saccharomyces cerevisiae BY4742 containing Aspergillus fumigatus fks1delta453-649 hybrid after 24 hrs by broth microdilution assay. The conditions noted are these: BY4742, 24 h.
The test system of assay [9] is Saccharomyces cerevisiae. As to the kind of experiment: Antimicrobial activity against Saccharomyces cerevisiae BY4742 containing Aspergillus fumigatus fks1617-649 hybrid after 24 hrs by broth microdilution assay. As to conditions: BY4742, 24 h.
Assay [10] concerns Saccharomyces cerevisiae. The assay is described as follows: Antimicrobial activity against Saccharomyces cerevisiae BY4742 fks1-F639Y mutant after 24 hrs by broth microdilution assay. As to conditions: BY4742, 24 h.
Assay [11] deals with Saccharomyces cerevisiae. The assay is described as follows: Antimicrobial activity against Saccharomyces cerevisiae BY4742 containing Fusarium solani fks1617-649 hybrid after 24 hrs by broth microdilution assay. The conditions noted are these: BY4742, 24 h.
Assay [12] has as its system Nakaseomyces glabratus. The assay is described as follows: Antimicrobial activity against Candida glabrata containing FSK2 after 24 hrs by broth microdilution assay.
Assay [13] has as its system Saccharomyces cerevisiae. As to the kind of experiment: Antimicrobial activity against Saccharomyces cerevisiae BY4742 transfected with Scedosporium prolificans FSK1 gene sequence after 24 hrs by broth microdilution assay. As to conditions: BY4742, 24 h.
For assay [14], the system named is Saccharomyces cerevisiae. As to the kind of experiment: Antimicrobial activity against Saccharomyces cerevisiae BY4742 fks1-F639F wild type after 24 hrs by broth microdilution assay. As to conditions: BY4742, 24 h.

A word on the MIC: it is the smallest concentration in the dilution series that meets the test's criterion for growth inhibition. A lower MIC goes with a more susceptible organism. As for `CCCCCOc1ccc(-c2cc(-c3ccc(C(=O)N[C@H]4C[C@@H](O)[C@@H](O)NC(=O)[C@@H]5[C@@H](O)[C@@H](C)CN5C(=O)[C@H]([C@H](O)CC(N)=O)NC(=O)[C@H]([C@H](O)[C@@H](O)c5ccc(O)c(OS(=O)(=O)O)c5)NC(=O)[C@@H]5C[C@@H](O)CN5C(=O)[C@H]([C@@H](C)O)NC4=O)cc3)no2)cc1` [MICAFUNGIN] (X1-[Orn(4R-OH,5R-OH)]T[Hyp][hTyr(3S-OH,4S-OH,3'-OSO3H)][Gln(3R-OH)][Pro(3S-OH,4S-Me)]; lactam 1-C), the MIC with Nakaseomyces glabratus [1] came out at 0.062 µg/mL (≈ 0.0488 µM); with Saccharomyces cerevisiae [2], 0.031 µg/mL (≈ 0.0244 µM); with Saccharomyces cerevisiae [3] it was 0.062 µg/mL (≈ 0.0488 µM); in the assay on Saccharomyces cerevisiae [4], 0.008 µg/mL (≈ 0.0063 µM); against Saccharomyces cerevisiae [5] it was 0.016 µg/mL (≈ 0.0126 µM); with Saccharomyces cerevisiae [6], 0.062 µg/mL (≈ 0.0488 µM). In addition, the MIC is 0.031 µg/mL (≈ 0.0244 µM) in the assay with Saccharomyces cerevisiae [7]; 0.062 µg/mL (≈ 0.0488 µM) with Saccharomyces cerevisiae [8]; 0.031 µg/mL (≈ 0.0244 µM) against Saccharomyces cerevisiae [9]; 0.5 µg/mL (≈ 0.394 µM) in the assay on Saccharomyces cerevisiae [10]; 0.25 µg/mL (≈ 0.197 µM) in the assay with Saccharomyces cerevisiae [11]; 0.031 µg/mL (≈ 0.0244 µM) against Nakaseomyces glabratus [12]. For the same compound, the MIC against Saccharomyces cerevisiae [13] and in the assay on Saccharomyces cerevisiae [14] was 0.062 µg/mL (≈ 0.0488 µM) each time.

For the compound `CC[C@H](C)C[C@H](C)CCCCCCCCC(=O)N[C@H]1C[C@@H](O)[C@@H](NCCN)NC(=O)[C@@H]2[C@@H](O)CCN2C(=O)[C@H]([C@H](O)CCN)NC(=O)[C@H]([C@H](O)[C@@H](O)c2ccc(O)cc2)NC(=O)[C@@H]2C[C@@H](O)CN2C(=O)[C@H]([C@@H](C)O)NC1=O` [CASPOFUNGIN], the MIC turned out to be 0.5 µg/mL (≈ 0.457 µM) against Nakaseomyces glabratus [1]; 0.008 µg/mL (≈ 0.00732 µM) in the assay with Saccharomyces cerevisiae [2]; 0.002 µg/mL (≈ 0.00183 µM) with Saccharomyces cerevisiae [3]; 0.001 µg/mL (≈ 0.000915 µM) in the assay with Saccharomyces cerevisiae [4]; 0.031 µg/mL (≈ 0.0284 µM) in the assay on Saccharomyces cerevisiae [5]; 0.25 µg/mL (≈ 0.229 µM) in the assay on Saccharomyces cerevisiae [6]. Moreover, the MIC against Saccharomyces cerevisiae [7] was found to be 0.008 µg/mL (≈ 0.00732 µM); in the assay with Saccharomyces cerevisiae [8], 0.002 µg/mL (≈ 0.00183 µM); against Saccharomyces cerevisiae [9], 0.008 µg/mL (≈ 0.00732 µM); in the assay with Saccharomyces cerevisiae [10], 0.5 µg/mL (≈ 0.457 µM); in the assay on Saccharomyces cerevisiae [11], 0.25 µg/mL (≈ 0.229 µM); against Nakaseomyces glabratus [12] it was 0.062 µg/mL (≈ 0.0567 µM). Further, the MIC in the assay on Saccharomyces cerevisiae [13] and with Saccharomyces cerevisiae [14] was 0.031 µg/mL (≈ 0.0284 µM) throughout.
